Consider 16 molecules from PubChem BioAssay (NCI).

Molecules are shown by their SMILES.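 Method: 48-hour compound exposure of cells in 96-well plates, five concentrations, linear interpolation of endpoints. TGI is the concentration that stops growth completely.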 Bounds are passed on as bounds.

Test systems include RPMI-8226 leukemia; SNB-75 CNS; COLO 205 colon; MDA-MB-435; HL-60(TB) leukemia; M14 melanoma; KM12 colon; NCI-H226 lung; T-47D breast; HCC-2998 colon.
Holding throughout (assay): NCI tumour cell line growth inhibition, 48 h

Take `CS(=O)(=O)OCCN1CCC2(CC1)SSC1(CCN(CCOS(C)(=O)=O)CC1)S2`: the TGI in the assay on RPMI-8226 leukemia is 29.6 µM; with SNB-75 CNS it was above 100 µM; in the assay on COLO 205 colon, above 100 µM; in the assay with MDA-MB-435, above 100 µM; in the assay on HL-60(TB) leukemia, 59.7 µM; with M14 melanoma, above 100 µM. In addition, the TGI in the assay with KM12 colon was above 100 µM.
On to `COC(=O)c1ccc(-c2nc(C#N)c(N)o2)cc1`, for which the TGI with RPMI-8226 leukemia, in the assay on COLO 205 colon, in the assay on MDA-MB-435, in the assay on NCI-H226 lung, in the assay with M14 melanoma and in the assay with KM12 colon was above 100 µM each time. In the assay on T-47D breast, this molecule yielded a TGI above 100 µM.
Regarding `COC(=O)[C@H](C)N1C(=O)N[C@@H](C(C)C)C1=O`, the TGI in the assay on HCC-2998 colon, with RPMI-8226 leukemia, in the assay on SNB-75 CNS, in the assay with COLO 205 colon, with MDA-MB-435 and in the assay on NCI-H226 lung was above 100 µM in each case. Moreover, the TGI in the assay with M14 melanoma, in the assay with KM12 colon and in the assay on T-47D breast was above 100 µM each time.
In the case of `C/C(O)=C(\C=N\C(N)=S)C(=O)Nc1ccccc1C`, the TGI with HCC-2998 colon, in the assay with RPMI-8226 leukemia, in the assay with SNB-75 CNS, in the assay with COLO 205 colon, in the assay with MDA-MB-435 and with NCI-H226 lung was above 100 µM in each case. Further, the TGI in the assay on M14 melanoma, in the assay on KM12 colon and with T-47D breast was above 100 µM in each case.
Regarding `CCN(CC)CCO/N=C1\CC[C@H]2[C@@H]3CC=C4C[C@@H](O)CC[C@]4(C)[C@H]3CC[C@]12C`, the TGI worked out at 31.7 µM in the assay on HCC-2998 colon; 47.6 µM in the assay with RPMI-8226 leukemia; 91.1 µM with SNB-75 CNS; 26.1 µM in the assay with COLO 205 colon; 31.9 µM with MDA-MB-435; 44.5 µM with HL-60(TB) leukemia. In addition, the TGI with NCI-H226 lung was found to be 33.1 µM; in the assay on KM12 colon, 38.5 µM.
On to `CC(C)CCC[C@@H](C)[C@H]1CC[C@H]2[C@@H]3CC=C4C[C@@H](OC(=O)c5cccc6c(=O)c7ccccc7[nH]c56)CC[C@]4(C)[C@H]3CC[C@]12C`, for which the TGI with HCC-2998 colon, in the assay on RPMI-8226 leukemia, in the assay with SNB-75 CNS, in the assay with COLO 205 colon, in the assay on MDA-MB-435 and in the assay on NCI-H226 lung was above 75 µM in each case. Further, the TGI with M14 melanoma, in the assay with KM12 colon and in the assay on T-47D breast was above 75 µM throughout.
Turning to `CN(C)CCOC(=O)COc1ccc(Cl)cc1`, the TGI in the assay with HCC-2998 colon, with SNB-75 CNS, with COLO 205 colon, in the assay on MDA-MB-435, with NCI-H226 lung and with M14 melanoma was above 100 µM each time. Further, the TGI in the assay with KM12 colon and in the assay with T-47D breast was above 100 µM throughout.
For `CCOC(=O)c1ccc2nc(NC(=O)COC(=O)CSc3nc(C)cc(C)n3)sc2c1`, the TGI is above 100 µM with RPMI-8226 leukemia; 60.4 µM in the assay on SNB-75 CNS; above 100 µM in the assay on COLO 205 colon; above 100 µM in the assay on MDA-MB-435; 33.9 µM in the assay with HL-60(TB) leukemia; above 100 µM with M14 melanoma. Also, the values for the TGI in the assay on KM12 colon and with T-47D breast were above 100 µM and 63.6 µM, respectively.
For the molecule `O=C(/C=C/c1ccc(-c2ccccc2[N+](=O)[O-])o1)NCc1ccc(C(=O)NCCc2ccccc2)cc1`, the TGI with HCC-2998 colon, in the assay on RPMI-8226 leukemia, in the assay on SNB-75 CNS, in the assay with COLO 205 colon, in the assay with MDA-MB-435 and in the assay with NCI-H226 lung was above 100 µM each time. Besides, the TGI with M14 melanoma, in the assay with KM12 colon and in the assay with T-47D breast was above 100 µM each time.
As for `CC(=O)NC1C(CO)O[C@@H]2OC(C)(C)O[C@H]12` (stereo not given in full), the TGI in the assay on HCC-2998 colon, with RPMI-8226 leukemia, in the assay with SNB-75 CNS, with MDA-MB-435, in the assay with HL-60(TB) leukemia and in the assay on M14 melanoma was above 100 µM each time. For the same molecule, in the assay with KM12 colon, the TGI is above 100 µM.
As for `O=c1[nH]c(=O)n(C2OC(COP(=O)(O)OP(=O)(O)O)C(O)C2O)cc1F` (stereo not given), the TGI is above 50 µM in the assay on HCC-2998 colon; above 50 µM with RPMI-8226 leukemia; above 50 µM in the assay on SNB-75 CNS; above 50 µM with COLO 205 colon; above 50 µM with HL-60(TB) leukemia; 28.6 µM in the assay on NCI-H226 lung. Besides, the TGI in the assay on M14 melanoma and in the assay on KM12 colon was above 50 µM each time.
For the molecule `S=C(N/N=C\C=N/NC(=S)N1CCCCCC1)N1CCCCCC1`, the TGI in the assay with HCC-2998 colon, in the assay with RPMI-8226 leukemia, in the assay with SNB-75 CNS, in the assay on COLO 205 colon, with MDA-MB-435 and in the assay with NCI-H226 lung was above 100 µM each time. Further, the figures for the TGI in the assay with M14 melanoma, in the assay on KM12 colon and in the assay on T-47D breast were above 100 µM, above 100 µM and 21.8 µM, respectively.
On to `COc1cc(C2C3=C(CCC3=O)Oc3cc4c(cc32)OCO4)cc(OC)c1OC` (stereo not given), for which the TGI with SNB-75 CNS is 0.481 µM; with COLO 205 colon it was 1.81 µM; with HL-60(TB) leukemia it was 0.596 µM; with M14 melanoma, above 100 µM.
For the molecule `COc1ccc(C2(c3ccc(OC)cc3)OC(=O)c3cccc4cccc2c34)cc1`, the TGI with HCC-2998 colon is 37.5 µM; in the assay on RPMI-8226 leukemia, 8.8 µM; with MDA-MB-435, above 100 µM; with NCI-H226 lung, above 100 µM; with M14 melanoma, above 100 µM; with KM12 colon it was above 100 µM. The molecule also registered a TGI with T-47D breast of 80.8 µM.
For `COc1cc2cc(C(=O)N3CC(CCl)c4c3cc(N)c3ccccc43)[nH]c2cc1OCCN(C)C` (stereo not given), the TGI was 0.535 µM with HCC-2998 colon; 0.408 µM in the assay with RPMI-8226 leukemia; 0.00971 µM in the assay with COLO 205 colon; below 0.005 µM with MDA-MB-435; 0.0224 µM in the assay on NCI-H226 lung; 0.00977 µM with M14 melanoma. The TGI in the assay with KM12 colon amounted to 0.0116 µM; in the assay with T-47D breast, 0.0394 µM.
On to `COP(=O)(OC)C(N)CCSC` (stereo not given), for which the TGI with RPMI-8226 leukemia, in the assay with SNB-75 CNS, in the assay on COLO 205 colon, in the assay with MDA-MB-435, in the assay on HL-60(TB) leukemia and in the assay on NCI-H226 lung was above 100 µM in each case. In addition, the TGI in the assay on M14 melanoma and in the assay on KM12 colon was above 100 µM in each case.
